Assay results taken from patent US10934346B2, “Modified T cell comprising a polynucleotide encoding an inducible stimulating molecule comprising MyD88, CD40 and FKBP12” (priority 2014, dated 2021).
“Also recorded” adds a separate entry of the source.

What was measured:
primary T cells = experiment: Activation of primary T cells with iMyD88, iCD40 or iMC after AP1903 (cytokine ELISA); conditions: iMC
Method: To examine whether MyD88, CD40 or both molecules should be included as endodomains in potential chimeric antigen receptor constructs, four distinct vectors were designed containing the AP1903-binding domains only (Fv′Fv), or genetically fused with MyD88 (iMyD88), CD40 (iCD40) or with both MyD88 and CD40 (iMC) (FIG. 41a). […] The ability of iMyD88, iCD40 or iMC to activate T cells following exposure to AP1903 by measuring IFN-γ and IL-6 production by ELISA was then assayed.
A set of experiments was performed to examine whether MyD88, CD40 or both components were required for optimum T cell stimulation using the iMC molecule.

CAPAN-1 GFP+ tumor cells = experiment: Co-culture of iMC-enabled T cells with CAPAN-1-GFP tumor cells; format: cell-based, human; conditions: 10 nM AP1903, 5:1 T cells to tumor cells, 72 hours, RV-172 T cells
Method: FIG. 53 Activation of iMC-transduced T cells with AP1903 induces T cell killing of tumor cells. […] Co-cultures were cultured with or without 10 nM AP1903. After 72 hours, co-cultures were analyzed for GFP^+ tumor cells (X-axis) by flow cytometry.
FIG. 55: Activation of iMC-transduced T cells with AP1903 induces T cell killing of tumor cells. […] Co-cultures were cultured with or without 10 nM AP1903. After 72 hours, co-cultures were analyzed for GFP^+ tumor cells by flow cytometry (n=2).
FIG. 56: Activation of iMC-transduced T cells with AP1903 induces T cell killing of tumor cells. […] Co-cultures were cultured with or without 10 nM AP1903.
3. Non-transduced T cells or cells transduced with RV-171 (control vector) or RV-172 (iMC vector) were cultured at a 5:1 ratio of T cells to tumor cells in media supplemented with 50 U/ml IL-2, and either with or without 10 nM AP1903. Co-cultures were then incubated at 37° C. and 5% CO2 for 72 hours. Cultures were subsequently analyzed for the presence of GFP^+ tumor cells by fluorescent microscopy and by harvesting the cultures with 0.25% trypsin/EDTA and measuring the frequency of GFP^+CD3^− tumor cells in the culture by flow cytometry.

B16-F10 melanoma cells = experiment: IL-6 ELISA of adenovirus-transduced B16-F10 melanoma cells with AP1903; format: cell-based
Method: Adenoviruses were added at 1000, 2000, 4000, 8000 and 16000 virus/cell ratio and cells were incubated for 24 hours. Then, 100 nM of AP1903 was added to all the wells, and the following day the cells and culture supernatants were harvested. A. Cells were labeled with anti-human PSMA antibody, LNI-17, (Biolegend, San Diego, Calif.) and PSMA expression was analyzed by flow cytometry. Represented is the percentage of PSMA^+ cells when compared to non-transduced cells. B. IL-6 was evaluated from the culture supernatants by ELISA (e-Bioscience, San Diego, Calif.). FIG. 28 provides the results of the assay at a different multiplicity of infection and plating concentration. B16 melanomas were cultured at 50,000 cells/ml/well in 24-well plates. Adenoviruses were added at 6000, 12000, 18000, 24000 and 30000 virus/cell ratio and cells were incubated for 24 hours. Then, 100 nM of AP1903 was added to all the wells, and the following day the cells and culture supernatants were harvested. A. Cells were labeled with anti-human PSMA antibody, LNI-17, (Biolegend, San Diego, Calif.) and PSMA expression was analyzed by flow cytometry. Represented is the percentage of PSMA^+ cells when compared to non-transduced cells. B. IL-6 was evaluated from the culture supernatants by ELISA (e-Bioscience, San Diego, Calif.). […] IL-6 was evaluated from the culture supernatants by ELISA (e-Bioscience, San Diego, Calif.)

BLK CL4 fibroblasts = experiment: IL-6 ELISA of adenovirus-transduced BLK CL4 fibroblasts with AP1903; format: cell-based; conditions: 100 nM AP1903
Method: BLK.CL4 fibroblasts were cultured at 175,000 cells/ml/well in 24-well plates. Adenoviruses were added at 6000, 12000, 18000, 24000 and 30000 virus/cell ratio and cells were incubated for 24 hours. Then, 100 nM of AP1903 was added to all the wells, and the following day cells and culture supernatants were harvested. A. Cells were labeled with anti-human PSMA antibody, LNI-17, (Biolegend, San Diego, Calif.) and PSMA expression was analyzed by flow cytometry. Represented is the percentage of PSMA^+ cells when compared to non-transduced cells. B. IL-6 was evaluated from the culture supernatants by ELISA (e-Bioscience, San Diego, Calif.). For FIG. 31, BLK.CL4 fibroblasts were cultured at 350,000 cells/well in 6-well plates. Adenoviruses were added at 20,000 v.p./cell ratio and cells were incubated for 24 hours. Then, 100 nM of AP1903 was added, and the following day culture supernatants were harvested. IL-6 was evaluated from the culture supernatants by ELISA (e-Bioscience, San Diego, Calif.).

iMC-modified T cells = experiment: Titration of rimiducid on iMC-transduced T cells (T cell activation); format: cell-based, human
Source text: Cytokine and chemokine production. […] CAR and iMC signaling.

## CC[C@H](C(=O)N1CCCC[C@H]1C(=O)O[C@H](CCc1ccc(OC)c(OC)c1)c1cccc(OCC(=O)NCCNC(=O)COc2cccc([C@@H](CCc3ccc(OC)c(OC)c3)OC(=O)[C@@H]3CCCCN3C(=O)[C@@H](CC)c3cc(OC)c(OC)c(OC)c3)c2)c1)c1cc(OC)c(OC)c(OC)c1 (relative stereo) [rimiducid, 2-Piperidinecarboxylic acid, 1-[(2S)-1-oxo-2-(3,4,5-trimethoxyphenyl)butyl]-, 1,2-ethanediylbis [imino(2-oxo-2,1-ethanediyl)oxy-3,1-phenylene[(1R)-3-(3,4-Dimethoxyphenyl)propylidene]] ester, [2S-[1(R*),2R*[S*[S*[1(R*),2R*]]]]]-(9Cl)]
Primary T cells
  IL-1 secretion: IL-1a and β are secreted
CAPAN-1 GFP+ tumor cells
  GFP+ tumor cells remaining: elimination of GFP^+ tumor cells; also recorded: showed very few viable GFP^+ tumor cells
B16-F10 melanoma cells; 100 nM AP1903
  IL-6 production: response to AP1903 by producing IL-6
B16-F10 melanoma cells; presence and absence of AP1903
  IL-6 production without ligand: transduced cells produce IL-6 without the addition of AP1903
BLK CL4 fibroblasts
  IL-6 production: response to AP1903 by producing IL-6
iMC-modified T cells; Homo sapiens, T-cell, FIG. 1b, read-out: EC50, activation of T cells through the iMC switch
  EC50: ~0.12 nM
iMC-modified T cells; […]
  activation of iMC-transduced T cells: dose-dependent activation
